Measured values as given in ChEMBL document CHEMBL1201862, “PubChem BioAssay data set” (2004).
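Briefly, cells in 96-well plates were exposed to five compound concentrations for 48 h, and endpoints were estimated by linear interpolation. Here, GI50 denotes the concentration required for 50% inhibition of growth.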 The source made the active and inactive calls. Rule as the data show it: active = GI50 up to about 1.1 µM and inactive = higher.

How the values were obtained:
Experiment in all cases: growth of human tumour cells (NCI), 48 h
[1] = test system: T47D
[2] = test system: HCT-116
[3] = test system: TK-10
[4] = test system: MDA-MB-231
[5] = test system: NCI-H522
[6] = test system: OVCAR-5
[7] = test system: RPMI-8226
[8] = test system: SK-MEL-5
[9] = test system: SNB-75
[10] = test system: UACC-257
[11] = test system: HCT-15
[12] = test system: Hs-578T
[13] = test system: COLO 205
[14] = test system: SF-268
[15] = test system: U-251
[16] = test system: LOX IMVI
[17] = test system: NCI/ADR-RES
[18] = test system: OVCAR-8
[19] = test system: SW-620
[20] = test system: BT-549
[21] = test system: 786-0
[22] = test system: SF-539
[23] = test system: OVCAR-3
[24] = test system: A498
[25] = test system: NCI-H23
[26] = test system: SK-MEL-28
[27] = test system: M14
[28] = test system: KM12
[29] = test system: MOLT-4
[30] = test system: SNB-19
[31] = test system: K562
[32] = test system: HT-29
[33] = test system: ACHN
[34] = test system: MDA-N
[35] = test system: OVCAR-4
[36] = test system: A549
[37] = test system: MCF7
[38] = test system: HL-60
[39] = test system: UO-31
[40] = test system: SK-OV-3
[41] = test system: SF-295
[42] = test system: UACC-62
[43] = test system: MDA-MB-435
[44] = test system: HCC 2998
[45] = test system: Malme-3M
[46] = test system: CAKI-1
[47] = test system: HOP-62
[48] = test system: NCI-H460
[49] = test system: SN12C
[50] = test system: SR
[51] = test system: RXF 393
[52] = test system: IGROV-1
[53] = test system: DU-145
[54] = test system: PC-3
[55] = test system: SK-MEL-2
[56] = test system: EKVX
[57] = test system: CCRF-CEM
[58] = test system: NCI-H226

Measured: GI50

CCOC(=O)CC1Nc2ccccc2C12CCc1c([nH]c3ccccc13)C2C(=O)OCC (stereo not drawn)
inactive: [1] 10.4 µM | [2] 12.9 µM | [3] 32.5 µM | [4] 22.9 µM | [5] 7.13 µM | [6] > 100 µM | [7] 2.77 µM | [8] 14.8 µM | [10] 38 µM | [12] 8.18 µM | [13] 5.12 µM | [14] 51.4 µM | [15] 48.5 µM | [16] 26.5 µM | [17] 12.6 µM | [18] > 100 µM | [19] 6.87 µM | [20] > 100 µM | [21] 47.5 µM | [22] 88.1 µM | [23] 22.2 µM | [24] 9.42 µM | [25] 51.2 µM | [26] 35.1 µM | [27] 30.5 µM | [28] 14.8 µM | [29] 6.1 µM | [30] > 100 µM | [31] 34 µM | [32] 11.6 µM | [33] 28.6 µM | [34] 4.65 µM | [35] 12.3 µM | [36] 14.3 µM | [37] 13.1 µM | [38] 14.7 µM | [39] 36.1 µM | [40] 6.4 µM | [41] 3.61 µM | [42] 9.62 µM | [43] 4.79 µM | [44] 84.9 µM | [45] 10.5 µM | [46] 6.58 µM | [47] > 100 µM | [48] 14.2 µM | [49] 24.7 µM | [50] 17.3 µM | [51] 5.79 µM | [52] 6.92 µM | [53] > 100 µM | [54] 53.2 µM | [55] 27 µM | [56] 16.2 µM
active: [9] 0.0728 µM | [57] 0.359 µM
13.1 µM: [11]

O=C(CN1C(=O)c2ccccc2C1=O)NC1(C(=O)O)CCCC1
inactive: [1] > 100 µM | [2] > 100 µM | [3] > 100 µM | [4] > 100 µM | [5] > 100 µM | [6] > 100 µM | [7] > 100 µM | [8] > 100 µM | [9] > 100 µM | [10] > 100 µM | [12] > 100 µM | [13] > 100 µM | [58] > 100 µM | [14] > 100 µM | [15] > 100 µM | [16] > 100 µM | [17] > 100 µM | [18] > 100 µM | [19] > 100 µM | [20] > 100 µM | [21] > 100 µM | [23] > 100 µM | [24] > 100 µM | [25] > 100 µM | [26] > 100 µM | [27] > 100 µM | [28] > 100 µM | [29] > 100 µM | [30] > 100 µM | [31] > 100 µM | [32] > 100 µM | [33] > 100 µM | [34] > 100 µM | [35] > 100 µM | [36] > 100 µM | [37] > 100 µM | [38] > 100 µM | [39] > 100 µM | [40] > 100 µM | [41] > 100 µM | [42] > 100 µM | [43] > 100 µM | [44] > 100 µM | [45] > 100 µM | [46] > 100 µM | [47] > 100 µM | [49] > 100 µM | [50] > 100 µM | [51] > 100 µM | [52] > 100 µM | [53] > 100 µM | [54] > 100 µM | [55] > 100 µM | [56] > 100 µM | [57] > 100 µM
> 100 µM: [11]

CC(=O)NC1C(OC(C)C(=O)NC(C(=O)NC(CCC(=O)NCCCNC2c3ccccc3Nc3cccc([N+](=O)[O-])c32)C(N)=O)C(C)C)C(O)C(CO)OC1(C)OCc1ccccc1 (stereo not drawn)
0.463 µM: [11]
inactive: [1] 1.73 µM | [6] 3.94 µM | [9] 1.91 µM | [10] 2.33 µM | [12] 1.64 µM | [58] 1.13 µM | [15] 1.39 µM | [16] 1.47 µM | [17] 2.02 µM | [20] 1.63 µM | [24] 1.93 µM | [25] 1.61 µM | [27] 1.18 µM | [28] 1.77 µM | [30] 1.56 µM | [35] 1.78 µM | [39] 1.25 µM | [40] 1.67 µM | [41] 1.62 µM | [45] 1.12 µM | [46] 1.33 µM | [47] 1.27 µM | [52] 1.6 µM | [54] 1.37 µM | [55] 1.22 µM | [56] 1.54 µM
active: [2] 0.256 µM | [3] 0.133 µM | [4] 0.54 µM | [5] 0.637 µM | [7] 0.353 µM | [8] 0.198 µM | [13] 0.556 µM | [14] 0.998 µM | [18] 1.1 µM | [19] 0.291 µM | [21] 0.536 µM | [23] 0.946 µM | [29] 0.355 µM | [31] 0.363 µM | [32] 0.152 µM | [33] 0.621 µM | [34] 0.634 µM | [36] 0.399 µM | [37] 0.343 µM | [42] 0.577 µM | [43] 0.579 µM | [44] 0.671 µM | [48] 0.108 µM | [49] 0.822 µM | [50] 0.215 µM | [51] 0.36 µM | [53] 0.264 µM | [57] 1.02 µM
